Like-named read-outs stand apart in the source and are kept apart here.
Columns and labels:
Type in all cases: biochemical
[1] = biological target: T1, PDE9A2 (Homo sapiens, UniProt O76083); assay: Phosphodiesterase enzyme screening assay, PDE9A2; conditions: read-out: Band (PDE9A2 IC50)
T1 construct: purchased Reaction Biology Corporation, Malvern, Pa
Procedure, shortened: (§1)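 Recombinant enzymes were run in 100 mM HEPES pH 7.5, 5 mM MgCl2, 1 mM DTT, 0.003% Brij with 4.0 μM cGMP substrate, started with cGMP or cAMP, 1 h at RT, and stopped with EDTA. Fluorescent substrate and product were separated by microfluidic mobility shift.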

[2] = biological target: T2, PDE1A (Homo sapiens, UniProt P54750); assay: Phosphodiesterase enzyme screening assay, PDE1A
T2 construct: purchased Reaction Biology Corporation, Malvern, Pa
Procedure, shortened: as §1

[3] = biological target: T3, PDE1B (Homo sapiens, UniProt Q01064); assay: Phosphodiesterase enzyme screening assay, PDE1B
T3 construct: purchased Reaction Biology Corporation, Malvern, Pa
Procedure, shortened: as §1

[4] = Table 2, 10 concentrations, 4.0 μM cGMP substrate, 1 hour at R.T.
[5] = Table 2, ratio of IC50 values, value greater than 1 indicates greater selectivity for PDE9A2
[6] = Table 3, 4.0 μM cGMP substrate, 1 hour at R.T.
[7] = ratio of IC50 values, PDE1A versus PDE9A2, value greater than 1 = greater selectivity for PDE9A2
[8] = ratio of IC50 values, PDE1B versus PDE9A2, value greater than 1 = greater selectivity for PDE9A2
[9] = ratio of IC50 values, value greater than 1 indicates greater selectivity for PDE9A2

T3 sequence (Q01064 whole entry): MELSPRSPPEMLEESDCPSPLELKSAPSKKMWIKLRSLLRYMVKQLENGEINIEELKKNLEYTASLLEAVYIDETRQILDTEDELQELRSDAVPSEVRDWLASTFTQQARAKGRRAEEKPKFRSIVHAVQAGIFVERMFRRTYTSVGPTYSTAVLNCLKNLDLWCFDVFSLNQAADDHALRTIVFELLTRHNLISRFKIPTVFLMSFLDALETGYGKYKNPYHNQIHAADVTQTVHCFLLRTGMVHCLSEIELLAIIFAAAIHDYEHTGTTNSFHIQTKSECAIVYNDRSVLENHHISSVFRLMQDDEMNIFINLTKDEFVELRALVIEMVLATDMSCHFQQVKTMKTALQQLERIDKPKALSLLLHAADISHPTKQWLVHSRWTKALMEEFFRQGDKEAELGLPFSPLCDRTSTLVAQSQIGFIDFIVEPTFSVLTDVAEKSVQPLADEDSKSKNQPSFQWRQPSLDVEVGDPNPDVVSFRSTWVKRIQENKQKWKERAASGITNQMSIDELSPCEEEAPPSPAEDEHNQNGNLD
T2 sequence (P54750 whole entry): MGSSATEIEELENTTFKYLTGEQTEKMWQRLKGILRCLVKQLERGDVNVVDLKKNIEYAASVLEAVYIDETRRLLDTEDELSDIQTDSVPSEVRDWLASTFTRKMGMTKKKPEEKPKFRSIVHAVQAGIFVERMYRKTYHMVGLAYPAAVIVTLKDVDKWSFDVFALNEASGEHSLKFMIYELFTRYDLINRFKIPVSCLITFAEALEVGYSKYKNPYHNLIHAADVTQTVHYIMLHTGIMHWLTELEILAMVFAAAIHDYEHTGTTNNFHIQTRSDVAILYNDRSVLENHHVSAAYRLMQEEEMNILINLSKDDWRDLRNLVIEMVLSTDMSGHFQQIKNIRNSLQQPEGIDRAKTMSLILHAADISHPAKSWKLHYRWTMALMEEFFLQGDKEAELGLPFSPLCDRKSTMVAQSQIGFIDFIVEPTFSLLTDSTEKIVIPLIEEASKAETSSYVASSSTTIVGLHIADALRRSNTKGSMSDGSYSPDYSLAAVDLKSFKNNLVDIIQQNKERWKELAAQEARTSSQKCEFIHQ
T1 sequence (O76083 1-533 isoform O76083-2): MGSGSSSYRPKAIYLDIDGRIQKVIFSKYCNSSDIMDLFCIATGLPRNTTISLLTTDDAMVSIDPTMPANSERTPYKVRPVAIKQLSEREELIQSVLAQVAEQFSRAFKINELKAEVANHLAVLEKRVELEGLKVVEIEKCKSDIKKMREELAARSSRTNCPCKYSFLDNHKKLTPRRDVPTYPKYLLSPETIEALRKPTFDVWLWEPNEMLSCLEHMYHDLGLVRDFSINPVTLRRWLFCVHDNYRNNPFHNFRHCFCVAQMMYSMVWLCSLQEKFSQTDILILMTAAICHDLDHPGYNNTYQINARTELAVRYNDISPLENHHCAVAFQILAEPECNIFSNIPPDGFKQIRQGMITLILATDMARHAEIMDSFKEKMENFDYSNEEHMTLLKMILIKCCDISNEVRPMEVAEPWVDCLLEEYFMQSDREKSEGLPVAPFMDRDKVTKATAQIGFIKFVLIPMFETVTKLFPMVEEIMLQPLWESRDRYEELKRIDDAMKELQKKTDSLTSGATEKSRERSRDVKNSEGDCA

| SMILES | IC50 [1, 4] [nM] | PDE1A selectivity (versus PDE9A2) [2, 5] | PDE1B selectivity (versus PDE9A2) [3, 5] | other results |
| --- | --- | --- | --- | --- |
| CC1CN(Cc2nccc(C(F)(F)F)n2)CC1c1nn2c(C3CCOCC3)ncc2c(=O)[nH]1 (single isomer, unassigned; (+)) [(+)-2-((3,4-trans)-4-methyl-1-((4-(trifluoromethyl)pyrimidin-2-yl)methyl)pyrrolidin-3-yl)-7-(tetrahydro-2H-pyran-4-yl)imidazo[5,1-f][1,2,4]triazin-4(3H)-one] | < 1000 | 585 | 566 |  |
| Cc1ccnc(CN2CC(C)C(c3nn4c(C5CCOCC5)ncc4c(=O)[nH]3)C2)c1 (single isomer, unassigned; (+)) [(+)-2-((3,4-trans)-4-methyl-1-((4-methylpyridin-2-yl)methyl)pyrrolidin-3-yl)-7-(tetrahydro-2H-pyran-4-yl)imidazo[5,1-f][1,2,4]triazin-4(3H)-one] |  |  |  | IC50 ([1]; 4.0 μM cGMP substrate, 1 hour at R.T.): < 1000 nM; PDE1A selectivity (versus PDE9A2) ([2]; ratio of IC50 values PDE1A / PDE9A2, value greater than 1 = greater selectivity for PDE9A2): 143; PDE1B selectivity (versus PDE9A2) ([3]; ratio of IC50 values PDE1B / PDE9A2, value greater than 1 = greater selectivity for PDE9A2): 116 |
| Cc1ccnc(CN2CC(C)C(c3nn4c(C5CCOCC5)ncc4c(=O)[nH]3)C2)n1 (single isomer, unassigned; (+)) [(+)-2-((3,4-trans)-4-methyl-1-((4-methylpyrimidin-2-yl)methyl)pyrrolidin-3-yl)-7-(tetrahydro-2H-pyran-4-yl)imidazo[5,1-f][1,2,4]triazin-4(3H)-one] | < 1000 | 182 | 220 |  |
| CC1CN(Cc2ncc(N3CCCC3)cn2)CC1c1nn2c(C3CCOCC3)ncc2c(=O)[nH]1 (single isomer, unassigned; (+)) [(+)-2-((3,4-trans)-4-methyl-1-((5-(pyrrolidin-1-yl)pyrimidin-2-yl)methyl)pyrrolidin-3-yl)-7-(tetrahydro-2H-pyran-4-yl)imidazo[5,1-f][1,2,4]triazin-4(3H)-one] | < 1000 | 105 | 496 |  |
| CC1CN(Cc2ccc(C(F)(F)F)cn2)CC1c1nn2c(C3CCOCC3)ncc2c(=O)[nH]1 (single isomer, unassigned; (+)) [(+)-2-((3,4-trans)-4-methyl-1-((5-(trifluoromethyl)pyridin-2-yl)methyl)pyrrolidin-3-yl)-7-(tetrahydro-2H-pyran-4-yl)imidazo[5,1-f][1,2,4]triazin-4(3H)-one] |  |  |  | IC50 [1, 6]: < 1000 nM; PDE1A selectivity (versus PDE9A2) [2, 7]: 258; PDE1B selectivity (versus PDE9A2) [3, 8]: 560 |
| Cc1nc(CN2CC(C)C(c3nn4c(C5CCOCC5)ncc4c(=O)[nH]3)C2)no1 (single isomer, unassigned; (+)) [(+)-2-((3,4-trans)-4-methyl-1-((5-methyl-1,2,4-oxadiazol-3-yl)methyl)pyrrolidin-3-yl)-7-(tetrahydro-2H-pyran-4-yl)imidazo[5,1-f][1,2,4]triazin-4(3H)-one] |  |  |  | IC50 [1]: < 1000 nM; PDE1A selectivity (versus PDE9A2) [2, 9]: 20; PDE1B selectivity (versus PDE9A2) [3, 9]: 21 |
| Cc1cnc(CN2CC(C)C(c3nn4c(C5CCOCC5)ncc4c(=O)[nH]3)C2)nc1 (single isomer, unassigned; (+)) [(+)-2-((3,4-trans)-4-methyl-1-((5-methylpyrimidin-2-yl)methyl)pyrrolidin-3-yl)-7-(tetrahydro-2H-pyran-4-yl)imidazo[5,1-f][1,2,4]triazin-4(3H)-one] | < 1000 | 42 | 76 |  |
| CC1CN(Cc2cccc(C(F)(F)F)n2)CC1c1nn2c(C3CCOCC3)ncc2c(=O)[nH]1 (single isomer, unassigned; (+)) [(+)-2-((3,4-trans)-4-methyl-1-((6-(trifluoromethyl)pyridin-2-yl)methyl)pyrrolidin-3-yl)-7-(tetrahydro-2H-pyran-4-yl)imidazo[5,1-f][1,2,4]triazin-4(3H)-one] |  |  |  | IC50 [1, 6]: < 1000 nM; PDE1A selectivity (versus PDE9A2) [2, 7]: 708; PDE1B selectivity (versus PDE9A2) [3, 8]: 389 |
